Measurements reported in patent publication US20130131161A1, “METHODS AND COMPOSITIONS FOR CARDIOVASCULAR DISEASES AND CONDITIONS” (priority 2009, published 2013).
Values joined by “and” are separate entries in the source; they are usually repeats but may differ in a detail not shown here. Equal entries are not always repeated.

Test system: Human umbilical vein endothelial cells (HUVECs)
Test: eNOS activity analysis: NO, ONOO− and NO/ONOO− release from HUVECs of 50 genotyped donors in response to LA-419 (Example 2)
Type: cell-based
Procedure: Concurrent measurements of NO and ONOO^− were carried out with tandem electrochemical nanosensors combined into one working unit with a total diameter of 200-500 nm (FIG. 1). Their design was based on previously developed and well-characterized chemically modified carbon-fiber technology (Malinski and Taha, 1992; Lvovich and Scheeline, 1997). Each of the nanosensors was made by depositing a sensing material on the tip of a carbon fiber (length 4-5 μm, diameter 0.2-0.5 μm). The fibers were sealed with nonconductive epoxy and electrically connected to copper wires with conductive silver epoxy. A conductive film of polymeric nickel (II) tetrakis(3-methoxy-4-hydroxyphenyl)porphyrin for the NO-sensor and polymeric film of Mn (III) [2.2]paracyclophanylporphyrin was used for the ONOO^−-sensor.
A module of NO/ONOO^− nanosensors (diameter 1-2 μm) with a platinum wire (0.1 mm) counter electrode and saturated calomel reference electrode (SCE) were applied. Differential pulse voltammetry (DPV) and amperometry were performed with a computer-based Gamry VFP600 multichannel potentiostat. DPV was used to measure the basal NO and ONOO^− concentrations, and amperometry was used to measure changes in NO and ONOO^− concentrations from its basal level with time. The DPV current at the peak potential characteristic for NO oxidation (0.65 V) and ONOO^− reduction (−0.45 V) was directly proportional to the local concentrations of these compounds in the immediate vicinity of the sensor. Linear calibration curves (current vs. concentration) were constructed for each sensor from 10 nM to 3 μM before and after measurements with aliquots of NO and ONOO^− standard solutions, respectively. The detection limit of the sensors was 1.0 nM.
The quantification of each analyte (concentration in nM) was performed using a maximum current from amperograms and standard calibration curves. A reproducibility of measurements with nanosensors is relatively high (between 5-12%). […] The sensors were slowly raised 5±2 μm from the surface of a single endothelial cell. The eNOS agonist, calcium ionophore A23187 (CaI) as well as the different drugs were then added to the surrounding media at the cell surface with a nanoinjector that was also positioned by a computer controlled-micromanipulator.
This example describes the genotype-specific response of the three major eNOS variants to 1 μM and 5 μM concentrations of LA-419. The three major genetic polymorphisms studied were the Glu298Asp variant (E298D or 894G→T) in exon 7 of […], the −786T→C variant in the promoter region, and the intron 4 polymorphism (VNTR). All of these variants have possible effects on the cardiovascular system and endothelial dysfunction. For this study, human umbilical vein endothelial cells (HUVECs) from 50 donors between 18 and 32 years of age were used.
For the analysis several analysis techniques were employed. First, the effect of genotype on NO and ONOO^− release was explored within the different concentrations of LA-419 (control, 1 μM, 5 μM), calculated as the average peak release (nmols/L) of NO, ONOO^−, and NO/ONOO^−. The effect of genotype on the net increase in NO, ONOO^−, and NO/ONOO^− for LA-419 (1 μM and 5 μM) as compared to control was also measured. In addition, an analysis was done on the effect of genotype on the % change in NO, ONOO^−, and NO/ONOO^− production for LA-419 (1 μM and 5 μM), calculated as:
% Change=[(avg. LA-419−avg. control)/(avg. control)]*100
Finally, an evaluation was undertaken concerning the effect of genotype on the production of NO, ONOO^−, and NO/ONOO^− as the fold difference of control for LA-419 (1 μM and 5 μM), calculated as:
Fold Difference=(avg. LA-419)/(avg. control)
Within each calculation technique the results were compared for statistical significance using a non-parametric ANOVA Kruskal-Wallace test or a non-parametric Mann-Whitney U test. Statistical significance was set at a p-value <0.05 in a two-tailed distribution. […]

[1] = (LA-419 1 μM)/(control), T-786C T/C & C/C, n=27
[2] = (LA-419 1 μM)/(control), T-786C T/C, n=23
[3] = (LA-419 1 μM)/(control), T-786C T/T & T/C, n=45
[4] = (LA-419 1 μM)/(control), T-786C T/T, n=22
[5] = (LA-419 5 μM)/(control), Combination of all G894T + T-786C genotypes but G/G + T/T, n=31
[6] = (LA-419 5 μM)/(control), Combination of all G894T + T-786C genotypes but T/T + C/C, n=46
[7] = (LA-419 5 μM)/(control), G894T + T-786C G/G + T/C, n=8
[8] = (LA-419 5 μM)/(control), G894T + T-786C G/G + T/T, n=18
[9] = (LA-419 5 μM)/(control), G894T + T-786C G/T + C/C, n=1
[10] = (LA-419 5 μM)/(control), G894T + T-786C G/T + T/C, n=13
[11] = (LA-419 5 μM)/(control), G894T + T-786C G/T + T/T, n=4
[12] = (LA-419 5 μM)/(control), G894T + T-786C T/T + C/C, n=1
[13] = (LA-419 5 μM)/(control), G894T + T-786C T/T + C/C, n=3
[14] = (LA-419 5 μM)/(control), G894T + T-786C T/T + T/C, n=2
[15] = (LA-419 5 μM)/(control), G894T G/G & G/T, n=44
[16] = (LA-419 5 μM)/(control), G894T G/G, n=26
[17] = (LA-419 5 μM)/(control), G894T G/T & T/T, n=23
[18] = (LA-419 5 μM)/(control), G894T G/T, n=18
[19] = (LA-419 5 μM)/(control), G894T T/T, n=5
[20] = (LA-419 5 μM)/(control), Intron 4 a/a, n=1
[21] = (LA-419 5 μM)/(control), Intron 4 a/a, n=3
[22] = (LA-419 5 μM)/(control), Intron 4 b/a, a/a, c/c, n=14
[23] = (LA-419 5 μM)/(control), Intron 4 b/a, n=10
[24] = (LA-419 5 μM)/(control), Intron 4 b/b, b/a, c/c, n=42
[25] = (LA-419 5 μM)/(control), Intron 4 b/b, n=31
[26] = (LA-419 5 μM)/(control), Intron 4 c/c, n=1
[27] = (LA-419 5 μM)/(control), T-786C C/C, n=1

CC(=O)SC1COC2C(O[N+](=O)[O-])COC12 (stereo not drawn) [LA-419, S-(6-Nitro-oxi-hexahydro-furo[3,2-b]furan-3-1-il)thioacetate]
Fold difference ONOO− (mean ± sd) ((LA-419 1 μM)/(control), T-786C C/C, n=4): 1.11 (0.44) | Fold difference NO (mean ± sd) [1]: 1.15 (0.28) | Fold difference NO/ONOO− (mean ± sd) [1]: 1.45 (0.75) | Fold difference ONOO− (mean ± sd) [1]: 0.91 (0.31) | Fold difference NO (mean ± sd) [2]: 1.18 (0.30) | Fold difference NO/ONOO− (mean ± sd) [2]: 1.53 (0.78) | Fold difference ONOO− (mean ± sd) [2]: 0.88 (0.28) | Fold difference NO (mean ± sd) [3]: 1.14 (0.25) | Fold difference NO/ONOO− (mean ± sd) [3]: 1.39 (0.67) | Fold difference ONOO− (mean ± sd) [3]: 0.91 (0.25) | Fold difference NO (mean ± sd) [4]: 1.09 (0.18) | Fold difference NO/ONOO− (mean ± sd) [4]: 1.25 (0.52) | Fold difference ONOO− (mean ± sd) [4]: 0.95 (0.22) | Fold difference NO (mean ± sd) [5]: 1.13 (0.06) | Fold difference NO/ONOO− (mean ± sd) [5]: 1.40 (0.14) | Fold difference ONOO− (mean ± sd) [5]: 0.81 (0.07) | Fold difference NO (mean ± sd) [6]: 1.14 (0.06) | Fold difference NO/ONOO− (mean ± sd) [6]: 1.44 (0.16) | Fold difference ONOO− (mean ± sd) [6]: 0.81 (0.07) | Fold difference NO (mean ± sd) [7]: 1.14 (0.07) | Fold difference NO/ONOO− (mean ± sd) [7]: 1.44 (0.18) | Fold difference ONOO− (mean ± sd) [7]: 0.80 (0.07) | Fold difference NO (mean ± sd) [8]: 1.17 (0.06) | Fold difference NO/ONOO− (mean ± sd) [8]: 1.50 (0.18) | Fold difference ONOO− (mean ± sd) [8]: 0.79 (0.08) and 0.79 (0.06) | Fold difference NO (mean ± sd) [9]: 1.12 (0) | Fold difference NO/ONOO− (mean ± sd) [9]: 1.32 (0) | Fold difference ONOO− (mean ± sd) [9]: 0.85 (0) | Fold difference NO (mean ± sd) [10]: 1.13 (0.07) | Fold difference NO/ONOO− (mean ± sd) [10]: 1.37 (0.11) | Fold difference ONOO− (mean ± sd) [10]: 0.83 (0.04) | Fold difference NO (mean ± sd) [11]: 1.14 (0.05) | Fold difference NO/ONOO− (mean ± sd) [11]: 1.47 (0.19) | Fold difference ONOO− (mean ± sd) [11]: 0.79 (0.12) | Fold difference NO (mean ± sd) [12]: 1.08 (0) | Fold difference NO/ONOO− (mean ± sd) [12]: 1.59 (0) | Fold difference ONOO− (mean ± sd) [12]: 0.67 (0) | Fold difference NO (mean ± sd) [13]: 1.12 (0.07) | Fold difference NO/ONOO− (mean ± sd) [13]: 1.46 (0.14) | Fold difference ONOO− (mean ± sd) [13]: 0.77 (0.08) | Fold difference NO (mean ± sd) [14]: 1.12 (0.09) | Fold difference NO/ONOO− (mean ± sd) [14]: 1.29 (0.01) | Fold difference ONOO− (mean ± sd) [14]: 0.87 (0.06) | Fold difference NO (mean ± sd) [15]: 1.15 (0.06) | Fold difference NO/ONOO− (mean ± sd) [15]: 1.44 (0.16) | Fold difference ONOO− (mean ± sd) [15]: 0.80 (0.07) | Fold difference NO (mean ± sd) [16]: 1.16 (0.06) | Fold difference NO/ONOO− (mean ± sd) [16]: 1.48 (0.18) | Fold difference ONOO− (mean ± sd) [16]: 0.79 (0.07) | Fold difference NO (mean ± sd) [17]: 1.13 (0.06) | Fold difference NO/ONOO− (mean ± sd) [17]: 1.39 (0.13) | Fold difference ONOO− (mean ± sd) [17]: 0.82 (0.07) | Fold difference NO (mean ± sd) [18]: 1.13 (0.06) | Fold difference NO/ONOO− (mean ± sd) [18]: 1.39 (0.13) | Fold difference ONOO− (mean ± sd) [18]: 0.82 (0.06) | Fold difference NO (mean ± sd) [19]: 1.12 (0.07) | Fold difference NO/ONOO− (mean ± sd) [19]: 1.39 (0.13) | Fold difference ONOO− (mean ± sd) [19]: 0.81 (0.08) | Fold difference NO (mean ± sd) [20]: 1.17 (0) | Fold difference NO/ONOO− (mean ± sd) [20]: 1.39 (0) | Fold difference ONOO− (mean ± sd) [20]: 0.85 (0) | Fold difference NO (mean ± sd) [21]: 1.14 (0.04) | Fold difference NO/ONOO− (mean ± sd) [21]: 1.37 (0.04) | Fold difference ONOO− (mean ± sd) [21]: 0.83 (0.03) | Fold difference NO (mean ± sd) [22]: 1.16 (0.06) | Fold difference NO/ONOO− (mean ± sd) [22]: 1.44 (0.13) | Fold difference ONOO− (mean ± sd) [22]: 0.81 (0.05) | Fold difference NO (mean ± sd) [23]: 1.17 (0.07) | Fold difference NO/ONOO− (mean ± sd) [23]: 1.46 (0.14) | Fold difference ONOO− (mean ± sd) [23]: 0.80 (0.06) | Fold difference NO (mean ± sd) [24]: 1.14 (0.07) | Fold difference NO/ONOO− (mean ± sd) [24]: 1.43 (0.17) | Fold difference ONOO− (mean ± sd) [24]: 0.81 (0.07) | Fold difference NO (mean ± sd) [25]: 1.14 (0.07) | Fold difference NO/ONOO− (mean ± sd) [25]: 1.42 (0.18) | Fold difference ONOO− (mean ± sd) [25]: 0.81 (0.08) | Fold difference NO (mean ± sd) [26]: 1.17 (0) | Fold difference NO/ONOO− (mean ± sd) [26]: 1.53 (0) | Fold difference ONOO− (mean ± sd) [26]: 0.77 (0) | Fold difference NO (mean ± sd) [27]: 1.08 (0) | Fold difference NO/ONOO− (mean ± sd) [27]: 1.59 (0) | Fold difference ONOO− (mean ± sd) [27]: 0.67 (0)
